Where two headings read alike, the source gives them in different places. Marks after values point to notes of the source that are not given here.
Columns and labels:
[1] = tested on: panel of human tumor cell lines; assay: Average cytotoxic activity over the cell panel (MTT) compared with reference drugs; conditions: on average over the cell panel
Experimental: (§1) Briefly, depending upon the growth characteristics of the cell line, 3-8×10^3 cells well^−1, were seeded in 96-well microplates in growth medium (100 μL) and then incubated at 37° C. in a 5% carbon dioxide atmosphere. After 24 h, the medium was removed and replaced with a fresh one containing the compound to be studied, at the appropriate concentration, dissolved in 0.9% sodium chloride solution just before use. Triplicate cultures were established for each treatment. After 72 h, each well was treated with 10 μL of a 5 mg mL^−1 MTT saline solution and, after 5 h of incubation, 100 μL of a sodium dodecylsulfate (SDS) solution in 0.01 M HCl were added. After an overnight incubation, the inhibition of cell growth induced by the tested complexes was determined by measuring the absorbance of each well at 570 nm using a Bio-Rad 680 microplate reader. Mean absorbance for each drug dose was expressed as percentage of the control and plotted vs. drug concentration. Dose-response curves were fitted and IC50 values were calculated with four parameter logistic model (4PL).
(§2) The cytotoxicity was evaluated by means of the MTT test for 72 h treatment with increasing concentrations of the tested compounds.
Cytotoxic activity was examined against a panel of human tumor cell lines. […] The growth inhibitory effect was evaluated by means of MTT test. […] SD=standard deviation, -=not detected.

[2] = Experimental: (§3) The mice were purchased from Charles River, Italy, housed in steel cages under controlled environmental conditions (constant temperature, humidity, and 12 h dark/light cycle), and alimented with commercial standard feed and tap water ad libitum. Animals were observed daily, and body weight and food intake recorded. The Lewis lung carcinoma (LLC) cell line was purchased from ECACC, UK. The LLC cell line was maintained in D-MEM (Euroclone) supplemented with 10% heat-inactivated FBS (Euroclone), 10 mM L-glutamine, 100 U mL^−1 penicillin, and 100 μg mL^−1 streptomycin in a 5% CO2 air incubator at 37° C. […] At day 15, animals were sacrificed, the legs were amputated at the proximal end of the femur, and the inhibition of tumor growth was determined according to the difference in weight of the tumor-bearing leg and the healthy leg of the animals expressed as % referred to the control animals. Body weight was measured every two days and was taken as a parameter for systemic toxicity. All the values are the means±S.D. of not less than three measurements. Multiple comparisons were made by Tukey-Kramer test (** p<0.01; * p or °p<0.05).
(§4) For the assessment of the adverse side effects, changes in body weights of tumor-bearing mice were monitored daily (FIG. 1).

LoVo-OXP cells = assay: MTT cytotoxicity assay, 72 h, LoVo-OXP (oxaliplatin resistant); assay type: cell-based, human; conditions: MTT test, mean ± SD
Description: (§5) Human breast (MCF-7), lung (H157), pancreatic (PSN-1) and colon (HCT-15 and LoVo) carcinoma cell lines were obtained from the American Type Culture Collection (ATCC, Rockville, MD). A431 are human cervical carcinoma cells kindly provided by Prof. F. Zunino (Molecular Pharmacology Unit, Experimental Oncology and Molecular Medicine, Istituto Nazionale dei Tumori, Milan, Italy). […] G. Marverti (Dept. of Biomedical Science, University of Modena, Italy).
as §1
(§6) A LoVo cell line retaining a multidrug resistance phenotype was also considered (LoVo MDR). Cross-resistance profiles were evaluated by means of the resistance factor (RF), which is defined as the ratio between the IC50 value for the resistant cells and that arising from the sensitive cells (Table 3).
Cells (5×10^3 mL-1) were treated for 72 h with increasing concentrations of tested compounds. Cytotoxicity was assessed by MTT test. […] Resistant Factor (in brackets) is defined as IC50 resistant/parent line.

[3] = tested on: human cervical carcinoma cells A431; assay: MTT cytotoxicity assay, 72 h, A431; assay type: cell-based; conditions: MTT test, mean ± SD
Description: as §5, §1, §2
(§7) Cytotoxic activity was examined against a panel of human tumor cell lines. […] The growth inhibitory effect was evaluated by means of MTT test. Cells (5-8×10^3 mL^−1, depending on the growth characteristics of the cell line) were treated for 72 h with increasing concentrations of tested compounds. […] SD=standard deviation, -=not detected.

[4] = tested on: human ovarian cancer cells 2008; assay: MTT cytotoxicity assay, 72 h, 2008
Description: as §5, §1, §2, §7, §2, §7

[5] = tested on: human breast carcinoma cells MCF-7; assay: MTT cytotoxicity assay, 72 h, MCF-7; assay type: cell-based; conditions: MTT test, mean ± SD
Description: as §5, §1, §2, §7

[6] = tested on: human colon carcinoma cells HCT-15; assay: MTT cytotoxicity assay, 72 h, HCT-15; assay type: cell-based; conditions: MTT test, mean ± SD
Description: as §5, §1, §2, §7

[7] = tested on: human lung carcinoma cells H157; assay: MTT cytotoxicity assay, 72 h, H157; assay type: cell-based; conditions: MTT test, mean ± SD
Description: as §5, §1, §2, §7

[8] = tested on: human pancreatic carcinoma cells PSN-1; assay: MTT cytotoxicity assay, 72 h, PSN-1; assay type: cell-based; conditions: MTT test, mean ± SD
Description: as §5, §1, §2, §7

[9] = tested on: human colon cancer cells LoVo; assay: MTT cytotoxicity assay, 72 h, LoVo; assay type: cell-based; conditions: MTT test, mean ± SD
Experimental: Triplicate cultures were established for each treatment.
as §6, with “. A” for “A”
Cytotoxicity was assessed by MTT test. […]. Resistant Factor (in brackets) is defined as IC50 resistant/parent line.

[10] = tested on: murine Lewis lung carcinoma (LLC); assay: In vivo anticancer activity toward Lewis lung carcinoma; design: species or system C57BL mice; conditions: for Average tumor weight (mean ± SD, g) / Inhibition of tumor growth (%): daily i.p. from day 9, measured at day 15, 6: 5 mg kg^−1, 9: 3 mg kg^−1, cisplatin: 1.5 mg kg^−1; for Inhibition of tumor growth (%): referred to control animals
Experimental: as §3, §4
Starting from day 9 after tumor implantation, tested compounds were daily administered i.p. At day 15, mice were sacrified and tumor growth was detected as described above.

LoVo MDR cells = assay: MTT cytotoxicity assay, 72 h, LoVo MDR (multidrug resistant); assay type: cell-based, human; conditions: MTT test, mean ± SD
Description: as §5, §1, §6
Cells (5×10^3 mL-1) were treated for 72 h with increasing concentrations of tested compounds. Cytotoxicity was assessed by MTT test. […] Resistant Factor (in brackets) is defined as IC50 resistant/parent line. […]

[11] = read-out: IC50 2008, MTT test, mean ± SD, Table 1
[12] = read-out: IC50 2008, MTT test, mean ± SD, Table 2

| Compound | IC50 (LoVo-OXP cells) [nM] | IC50 [3] [nM] | IC50 [4, 11] [nM] | IC50 [5] [nM] | IC50 [6] [nM] | IC50 [7] [nM] | IC50 [8] [nM] | IC50 [9] [nM] | IC50 (LoVo MDR cells) [nM] | IC50 [4, 12] [nM] | also measured |
| --- | --- | --- | --- | --- | --- | --- | --- | --- | --- | --- | --- |
| F[B-](F)(F)F.O=Cc1ccccc1P(c1ccccc1)c1ccccc1.O=Cc1ccccc1P(c1ccccc1)c1ccccc1.[Cu+] [Compound 9, Bis[2-(diphenylphosphanyl)benzaldehyde]copper(I) tetrafluoroborate] | 1100 ± 600 | 4700 ± 600 | 600 ± 100 | 1300 ± 300 | 800 ± 200 | 1500 ± 200 | 1100 ± 500 | 600 ± 200 | 800 ± 500 |  | average cytotoxic activity relative to cisplatin ([1]; times more effective than cisplatin): 4.8 times; average cytotoxic activity relative to oxaliplatin ([1]; times more effective than oxaliplatin): 3.8 times; tolerability compared with cisplatin ([2]; doses 5 and 3 mg kg^−1 represent ⅓ of the MTD): better tolerated than cisplatin; reduction of the tumor mass ([10]; 3 mg kg^−1 daily i.p., day 15): 83%; Average tumor weight (mean ± SD, g) [10]: 0.098 ± 0.06** g; Inhibition of tumor growth (%) [10]: 83.4% |
| F[B-](F)(F)F.O=C(O)c1ccccc1P(c1ccccc1)c1ccccc1.O=C(O)c1ccccc1P(c1ccccc1)c1ccccc1.[Cu+] [Compound 10, Bis[2-(diphenylphosphanyl)benzoic acid]copper(I) tetrafluoroborate] | 90 ± 30 | 3800 ± 1100 | 300 ± 100 | 1100 ± 200 | 1800 ± 600 | 900 ± 100 | 600 ± 10 | 1500 ± 400 | 900 ± 400 |  |  |
| COc1ccccc1P(c1ccccc1)c1ccccc1.COc1ccccc1P(c1ccccc1)c1ccccc1.F[B-](F)(F)F.[Cu+] [Compound 11, Bis[diphenyl(2-methoxyphenyl)phosphine] copper(I)tetrafluoroborate] |  |  |  |  |  |  |  |  |  | 400 ± 300 | cytotoxicity against human ovarian cancer cells compared with cisplatin and oxaliplatin ([4]; 2008 cells, MTT): the most cytotoxic derivative |
| F[B-](F)(F)F.Oc1ccccc1P(c1ccccc1)c1ccccc1.Oc1ccccc1P(c1ccccc1)c1ccccc1.[Cu+] [Compound 12, Bis[diphenyl(2-hydroxyphenyl)phosphine] copper(I)tetrafluoroborate] |  |  |  |  |  |  |  |  |  | 1100 ± 300 |  |
| COCOc1ccccc1P(c1ccccc1)c1ccccc1.COCOc1ccccc1P(c1ccccc1)c1ccccc1.F[B-](F)(F)F.[Cu+] [Compound 13, Bis[diphenyl(2-(methoxymethoxy)phenyl)phosphine] copper(I)tetrafluoroborate] |  |  |  |  |  |  |  |  |  | 1500 ± 400 |  |
| F[B-](F)(F)F.O=S(=O)(O)c1ccccc1P(c1ccccc1)c1ccccc1.O=S(=O)(O)c1ccccc1P(c1ccccc1)c1ccccc1.[Cu+] [Compound 14, Bis[2-(diphenylphosphino]benzenesulfonic acid]copper(I) tetrafluoroborate] |  |  |  |  |  |  |  |  |  | 800 ± 200 |  |
| N.N.[Cl][Pt][Cl] [cisplatin, cis-diamminedichloroplatinum(II), reference compound] |  | 2100 ± 800 | 2200 ± 500 | 7600 ± 200 | 15300 ± 2600 | 2100 ± 900 | 18300 ± 3100 |  |  | 2200 ± 500 | body weight loss ([2]; mouse, in vivo, ip): > 20%; Average tumor weight (mean ± SD, g) [10]: 0.119 ± 0.10** g; Inhibition of tumor growth (%) [10]: 79.8% |
| COc1cccc2c1C(=O)c1c(O)c3c(c(O)c1C2=O)C[C@@](O)(C(=O)CO)C[C@@H]3O[C@H]1C[C@H](N)[C@H](O)[C@H](C)O1 [doxorubicin, reference compound] |  |  |  |  |  |  |  |  |  |  | IC50 ([9]; Homo sapiens, LoVo): 1100 ± 500 nM; IC50 (LoVo MDR cells; Homo sapiens, LoVo): 19400 ± 2200 nM |
| O=C1[O][Pt]2([NH][C@@H]3CCCC[C@H]3[NH]2)[O]C1=O [oxaliplatin, cyclohexane-1,2-diamineethanedioatoplatinum(II), reference compound] | 17500 ± 1800 | 3700 ± 1000 | 1700 ± 1000 | 3400 ± 1200 | 1300 ± 300 | 11800 ± 3200 | 16100 ± 2500 | 3100 ± 300 | 1400 ± 800 | 1700 ± 1000 |  |
| Bis[tris(4- fluorophenyl)phosphine] copper(I) nitrate [Compound 4] | 700 ± 100 | 800 ± 600 | 1900 ± 500 | 1400 ± 300 | 1100 ± 500 | 900 ± 100 | 6200 ± 900 | 900 ± 300 | 1000 ± 100 |  |  |
| Bis[tris(4- methoxyphenyl)phosphine] copper(I) nitrate [Compound 3] |  | 3100 ± 1100 | 500 ± 100 | 1300 ± 400 | 300 ± 200 | 1200 ± 10 |  |  | 900 ± 200 |  |  |
| Bis[tris(4- methylphenyl)phosphine] copper(I) nitrate [Compound 2] | 1300 ± 500 | 3000 ± 1400 | 1300 ± 300 | 3100 ± 600 | 500 ± 200 | 3400 ± 200 | 300 ± 80 | 1400 ± 100 | 900 ± 600 |  |  |
| Bis[tris(N-EthylpiperazineN′- methyl)phosphine]copper(I) tetrafluoroborate [Compound 6] | 1300 ± 500 | 7700 ± 500 | 14500 ± 1200 | 3100 ± 900 | 2500 ± 100 | 3800 ± 300 | 13300 ± 3200 | 700 ± 300 | 1200 ± 900 |  | Average tumor weight (mean ± SD, g) [10]: 0.142 ± 0.09** g; Inhibition of tumor growth (%) [10]: 75.9% |
| Bis[tris(N-methylpiperazineN′- methyl)phosphine]copper(I) tetrafluoroborate [Compound 5] |  |  | 5200 ± 1700 |  | 8000 ± 2600 | 4300 ± 1200 | 7300 ± 1400 |  |  |  |  |
| Bis[tris(morpholineN- methyl)phosphine]copper(I) tetrafluoroborate [Compound 7] | 400 ± 200 | 15000 ± 2200 | 9200 ± 1000 | 6100 ± 1500 | 6400 ± 500 | 8400 ± 1800 | 12300 ± 1500 | 600 ± 300 | 400 ± 300 |  |  |
| Bis[tris(phenylphosphine)] copper(I) nitrate [Compound 1] | 300 ± 100 | 200 ± 10 | 2200 ± 100 | 1900 ± 700 | 1800 ± 800 | 1600 ± 100 | 4500 ± 1800 | 400 ± 30 | 500 ± 200 |  |  |
| Bis[tris(thiomorpholineN- methyl)phosphine]copper(I) tetrafluoroborate [Compound 8] |  |  | 11900 ± 100 |  | 10200 ± 100 | 5300 ± 1200 | 7700 ± 1300 |  |  |  |  |
